One compound from patent US20230210825A1, “METHODS AND COMPOSITIONS FOR TREATING SUBJECTS WITH METABOLIC DISORDERS AND CORONAVIRUS INFECTIONS” (CIRIUS THERAPEUTICS, INC., priority 2020, published 2023) can be followed below.

Structures are written as SMILES.

For the experiment, the system named is influenza virus A/PR/8/34 (H1N1) infected mice. The experiment in a line: Influenza virus infection of C57BL/6 mice. The experiment is classed as in vivo. To be noted: 30 mg/kg for 8 days. The method, then:
As shown in the top panel of FIG. 13A, C57BL/6 mice were infected with the influenza virus A/PR/8/34 (H1N1; ˜200 pfu/mouse) and then dosed for 8 days with vehicle or 30 mg/kg MSDC-0602K. As shown in the bottom panel of FIG. 13A, body weight was measured daily as indication of the health of the mice and at day 14 the mice were sacrificed for examination of their blood and lung tissue. The mice were sacrificed on day 14. […] The MCP-1 production levels are decreased in mice treated with MSDC-0602K compared with mice with vehicle treatment. Similarly, the inflammatory monocyte numbers in the lungs are reduced in mice treated with MSDC-0602K compared with mice with vehicle treatment. FIG. 13 C is a representative histology with a calculation of the percent disrupted area. […] The levels of protein-B (sftbp) and ABCA3 protein (abca3) were increased in mice treated with MSDC-0602K compared with mice with vehicle treatment. On the other hand, the total protein levels in bronchoalveolar lavage were decreased in mice treated with MSDC-0602K compared with mice with vehicle treatment.

Where [1] appears, read: sacrificed day 14, vs vehicle (FIG. 13B).

Regarding `COc1cccc(C(=O)COc2ccc(CC3SC(=O)NC3=O)cc2)c1` (stereo not drawn) [MSDC-0602K], for the setting “sacrificed day 14, vs vehicle”, the “expression of ABCA3 protein (abca3) in the lungs” value is “increased” and the “expression of surfactant protein-B (sftbp) in the lungs” value is recorded as “increased”. Moreover, under setting [1], the “MCP-1 (CCL2) production in the lungs” value is recorded as “decreased” and the “inflammatory monocyte numbers in the lungs” value is “reduced”. Also, the “disrupted area in lung (histology)” value (sacrificed day 14, vs vehicle (FIG. 13C)) is “significantly reduced”. Also, the “total protein levels in bronchoalveolar lavage (lung barrier leakage)” value (sacrificed day 14, vs vehicle (FIG. 13E)) is recorded as “decreased”.
